Paper PMC11645656, “MRGPRX4 mediates phospho-drug associated pruritus in a humanized mouse model” (Science translational medicine, 2024)
“And” between values parts separate entries of the source, which are not always exact repeats. Equal entries are not always repeated.

Tests used:
MRGPRX4 (S83) = target: T1, MRGPRX4 (S83) (Homo sapiens, UniProt Q96LA9, L83S); assay: EC50 determination, intracellular calcium mobilization in MRGPRX4 stably expressed HEK293 cells (FLIPR Calcium 5, Flexstation-3); assay type: cell-based; design: Fig. 1D dose-response, calcium mobilization response (individual replicate) / calcium mobilization response (Fig. 1D dose-response raw data): unit not given here; details: individual replicate values, listed as Phenytoin Sodium; for Fig. 1D dose-response, calcium response at Concentration (M): phenytoin series
T1 construct: expressed in transfected cells
Procedure, shortened: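 EC50 came from a four-parameter logistic fit to averaged triplicate responses, each response being maximum post-stimulation signal less baseline. Intracellular calcium was monitored with Calcium 5 dye in HBSS with 20 mM HEPES, pH 7.4, after 1 h dye loading at 37 °C, using stably transfected HEK293 cells and parental controls.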

[1] = IV, clinical trials; ref New Drug Application: 020450; cited from earlier work

T1 sequence (Q96LA9 whole entry L83S): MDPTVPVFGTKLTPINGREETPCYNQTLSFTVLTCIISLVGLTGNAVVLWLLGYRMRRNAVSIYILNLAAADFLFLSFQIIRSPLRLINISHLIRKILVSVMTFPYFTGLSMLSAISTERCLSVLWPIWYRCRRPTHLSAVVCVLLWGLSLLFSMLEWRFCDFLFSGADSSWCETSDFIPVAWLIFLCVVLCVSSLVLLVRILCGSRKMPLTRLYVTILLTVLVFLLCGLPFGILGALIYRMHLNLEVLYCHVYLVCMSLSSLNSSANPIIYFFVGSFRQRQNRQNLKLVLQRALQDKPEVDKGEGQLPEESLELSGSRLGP

Fig. 1D dose-response, calcium response at Concentration (M) (MRGPRX4 (S83); 4.88281e-7 M): -45.834 and -46.962 and -43.233 | Fig. 1D dose-response, calcium response at Concentration (M) (MRGPRX4 (S83); 9.76563e-7 M): -42.023 and -51.874 and -41.78 | Fig. 1D dose-response, calcium response at Concentration (M) (MRGPRX4 (S83); 1.95313e-6 M): -57.631 and -43.259 and -52.591 | Fig. 1D dose-response, calcium response at Concentration (M) (MRGPRX4 (S83); 3.90625e-6 M): -30.902 and -51.949 and -54.701 | Fig. 1D dose-response, calcium response at Concentration (M) (MRGPRX4 (S83); 7.8125e-6 M): -36.341 and -24.025 and -23.478 | Fig. 1D dose-response, calcium response at Concentration (M) (MRGPRX4 (S83); 1.5625e-5 M): -24.49 and -31.993 and -24.486 | Fig. 1D dose-response, calcium response at Concentration (M) (MRGPRX4 (S83); 3.125e-5 M): -42.34 and -14.448 and -21.073 | Fig. 1D dose-response, calcium response at Concentration (M) (MRGPRX4 (S83); 6.25e-5 M): -29.178 and -38.728 and -12.364 | Fig. 1D dose-response, calcium response at Concentration (M) (MRGPRX4 (S83); 0.00025 M): 21.7467 and 26.6867 and 14.9677 | Fig. 1D dose-response, calcium response at Concentration (M) (MRGPRX4 (S83); 0.0005 M): -0.1003 and 34.5457 and 1.141
SMILES: O=C1NC(=O)C(c2ccccc2)(c2ccccc2)N1 [Phenytoin]
calcium mobilization response (Fig. 1D dose-response raw data) (MRGPRX4 (S83); concentration 4.88281e-7 M): -35.967 and -38.387 and -9.249 and -43.815 and -12.548 and -27.242 | calcium mobilization response (Fig. 1D dose-response raw data) (MRGPRX4 (S83); concentration 9.76563e-7 M): -3.6717 and 0.5703 and -1.3847 and -25.061 and -39.258 and -5.762 | calcium mobilization response (Fig. 1D dose-response raw data) (MRGPRX4 (S83); concentration 1.95313e-6 M): -0.8477 and -0.3367 and -2.8407 and -17.925 and -29.096 and -31.733 | calcium mobilization response (Fig. 1D dose-response raw data) (MRGPRX4 (S83); concentration 3.90625e-6 M): -4.2817 and -4.6827 and 7.036 and -45.513 and -21.585 and -2.642 | calcium mobilization response (Fig. 1D dose-response raw data) (MRGPRX4 (S83); concentration 7.8125e-6 M): -6.1147 and -5.4597 and 3.666 and -0.809 and -24.700 and -20.368 | calcium mobilization response (Fig. 1D dose-response raw data) (MRGPRX4 (S83); concentration 1.5625e-5 M): -2.1987 and 5.167 and -0.3347 and -19.624 and -8.530 and -11.014 | calcium mobilization response (Fig. 1D dose-response raw data) (MRGPRX4 (S83); concentration 3.125e-5 M): -5.0347 and -1.5897 and 2.935 and -19.576 and -12.591 and -8.608 | calcium mobilization response (Fig. 1D dose-response raw data) (MRGPRX4 (S83); concentration 6.25e-5 M): 13.7733 and 12.6223 and 5.79 and -9.327 and -10.716 and -3.999 | calcium mobilization response (Fig. 1D dose-response raw data) (MRGPRX4 (S83); concentration 0.00025 M): 17.3763 and 20.0503 and 26.8243 and 17.981 and 21.189 and 24.656 | calcium mobilization response (Fig. 1D dose-response raw data) (MRGPRX4 (S83); concentration 0.0005 M): 40.1453 and 34.4913 and 26.1333 and 33.840 and 5.994 and 28.344 | Patients who reported itch [1]: 4.5%
